Reference: paper PMC3490489 (Clinical cancer research : an official journal of the …, 2012)
Where two headings read alike, the source gives them in different places. Values belong to the molecule of their own block, whether it stands above or below them.

What was measured:
[1] = cited from earlier work
[2] = molecular target: T1, UGT1A9 (Homo sapiens, UniProt O60656); test: Inhibition of UGT1A9-mediated sorafenib glucuronidation by azole antifungals; format: biochemical
T1 sequence (O60656 26-530): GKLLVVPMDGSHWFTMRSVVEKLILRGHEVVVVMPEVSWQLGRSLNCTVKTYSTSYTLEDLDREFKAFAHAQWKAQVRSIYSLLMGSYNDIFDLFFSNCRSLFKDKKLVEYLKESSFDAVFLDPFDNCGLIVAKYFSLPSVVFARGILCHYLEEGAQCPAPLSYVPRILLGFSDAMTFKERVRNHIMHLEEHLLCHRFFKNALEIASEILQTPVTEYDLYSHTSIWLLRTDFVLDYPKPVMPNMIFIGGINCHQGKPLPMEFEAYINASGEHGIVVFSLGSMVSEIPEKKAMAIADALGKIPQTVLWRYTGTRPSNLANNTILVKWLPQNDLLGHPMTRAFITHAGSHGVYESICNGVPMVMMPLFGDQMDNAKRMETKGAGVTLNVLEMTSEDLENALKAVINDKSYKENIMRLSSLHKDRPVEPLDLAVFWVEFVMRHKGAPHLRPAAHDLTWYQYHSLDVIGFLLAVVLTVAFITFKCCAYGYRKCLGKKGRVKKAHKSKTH

[3] = tested on: AML cell lines; settings: cited from earlier work
[4] = format: in vivo, human
[5] = tested on: human liver microsomes (HLM); test: Sorafenib N-oxide formation in microsomes from human liver samples; format: in vitro ADME; settings: 10 to 15 year age group, sorafenib 10 µM, 60 min
[6] = molecular target: T1, UGT1A9; settings: panel of purified human UGT enzymes
[7] = substrate: CNC(=O)c1cc(Oc2ccc(NC(=O)Nc3ccc(Cl)c(C(F)(F)F)c3)cc2)ccn1; test: not read; settings: other: purified human UGT1A9

Molecule: CCNCCNC(=O)c1c(C)[nH]c(/C=C2\C(=O)Nc3ccc(F)cc32)c1C [N-desethyl-sunitinib]
Share of total pharmacologic activity accounted for by the active metabolite ([1]; cancer patients given sunitinib): 30–50%

Ki [2]: 2200 nM
Molecule: CC(=O)N1CCN(c2ccc(OCC3COC(Cn4ccnc4)(c4ccc(Cl)cc4Cl)O3)cc2)CC1 (stereo not drawn) [ketoconazole, reference compound]
Effect of ketoconazole on sorafenib plasma clearance ([1]; healthy subjects): no effect on sorafenib plasma clearance

Molecule: CC[C@@H]([C@H](C)O)n1ncn(-c2ccc(N3CCN(c4ccc(OC[C@@H]5CO[C@@](Cn6cncn6)(c6ccc(F)cc6F)C5)cc4)CC3)cc2)c1=O [posaconazole, reference compound]
Effect on sorafenib N-oxide production in vivo (children given sorafenib concurrent with the azole): reduced N-oxide production to negligible levels | Inhibition of sorafenib glucuronidation in vitro [2]: weak inhibitors of sorafenib glucuronidation

Molecule: CNC(=O)c1cc(Oc2ccc(NC(=O)Nc3ccc(Cl)c(C(F)(F)F)c3)cc2)cc[n+]1[O-] [sorafenib N-oxide]
Cytotoxic activity [3]: exhibited cytotoxic activity | Mean sorafenib N-oxide metabolite ratio (metabolite Css,ave / sorafenib Css,ave) ([4]; all patients): ~ 0.30 | CV% of sorafenib N-oxide metabolite ratio ([4]; boys greater than 10 years): 11% | CV% of sorafenib N-oxide metabolite ratio ([4]; boys ≤ 10 years): 39% | Conversion to sorafenib N-oxide ([4]; boys ≤ 10 years): 40% | Sorafenib N-oxide metabolite ratio ([4]; boys ≤ 10 years): 0.40±0.15 | Mean conversion to sorafenib N-oxide ([4]; children 1 to 19 years): 27% | N-oxide metabolite ratio, boys versus girls ([4]; children ≤ 10 years): approximately 2 fold | Circulating concentrations of sorafenib N-oxide, mean ([4]; children, sorafenib 200 mg/m^2): 2 to 3 µM | Sorafenib N-oxide metabolite ratio ([4]; females, all ages): 0.22±0.10 | CV% of sorafenib N-oxide metabolite ratio ([4]; girls greater than 10 years): 20% | CV% of sorafenib N-oxide metabolite ratio ([4]; girls ≤ 10 years): 59% | Sorafenib N-oxide metabolite ratio ([4]; girls ≤ 10 years): 0.22±0.12 | Sorafenib N-oxide metabolite ratio ([4]; males older than 10 years): 0.18±0.021 | Sorafenib N-oxide metabolite ratio ([4]; males, all ages): 0.26±0.15 | N-oxide metabolite ratio (first patient, day 383, concurrent oral voriconazole 150 mg twice daily): 0.05 | N-oxide metabolite ratio (second patient, day 575, concurrent oral voriconazole 150 mg twice daily): 0.05 | N-oxide metabolite ratio (second patient, day 607, concurrent oral voriconazole 150 mg twice daily): 0.09 | Rate of conversion of sorafenib to sorafenib N-oxide ([1]; adults with AML): < 10% | Sorafenib N-oxide as share of circulating sorafenib concentrations ([1]; healthy subjects and cancer patients): approximately 10% | Rate of conversion of sorafenib to sorafenib N-oxide ([1]; twelve children with relapsed/refractory AML): 33% | Sorafenib N-oxide formation velocity, median ([5]; females): −1.5 log[µM/min/mg HLM] | Sorafenib N-oxide formation velocity, median ([5]; males): −1.1 log[µM/min/mg HLM]

CV% of steady-state sorafenib CL/F ([4]; all 30 patients): 58% | Steady-state sorafenib apparent oral clearance (CL/F), mean±standard deviation ([4]; all 30 patients): 64±37 mL/min/m^2
Molecule: CNC(=O)c1cc(Oc2ccc(NC(=O)Nc3ccc(Cl)c(C(F)(F)F)c3)cc2)ccn1 [sorafenib, reference compound]
Enzyme responsible for sorafenib glucuronidation [6]: UGT1A9 is primarily responsible for sorafenib glucuronidation

Molecule: C[C@@H](c1ncncc1F)[C@](O)(Cn1cncn1)c1ccc(F)cc1F [voriconazole]
Inhibition of sorafenib glucuronidation in vitro [2]: weak inhibitors of sorafenib glucuronidation

B1: UGT1A9 (Homo sapiens) (protein)
chain: T1 sequence (O60656 26-530)
Km [7]: 3.6 ± 0.22 µM
